target: T1, AHR (UniProt P35869); assay: DRE-Luciferase Reporter Assay (Alternate Method) (Example 1B); format: cell-based, murine or human; details: cell line and AHR activating ligand not specified
T1 construct: IC50
T1 sequence (P35869 1-848): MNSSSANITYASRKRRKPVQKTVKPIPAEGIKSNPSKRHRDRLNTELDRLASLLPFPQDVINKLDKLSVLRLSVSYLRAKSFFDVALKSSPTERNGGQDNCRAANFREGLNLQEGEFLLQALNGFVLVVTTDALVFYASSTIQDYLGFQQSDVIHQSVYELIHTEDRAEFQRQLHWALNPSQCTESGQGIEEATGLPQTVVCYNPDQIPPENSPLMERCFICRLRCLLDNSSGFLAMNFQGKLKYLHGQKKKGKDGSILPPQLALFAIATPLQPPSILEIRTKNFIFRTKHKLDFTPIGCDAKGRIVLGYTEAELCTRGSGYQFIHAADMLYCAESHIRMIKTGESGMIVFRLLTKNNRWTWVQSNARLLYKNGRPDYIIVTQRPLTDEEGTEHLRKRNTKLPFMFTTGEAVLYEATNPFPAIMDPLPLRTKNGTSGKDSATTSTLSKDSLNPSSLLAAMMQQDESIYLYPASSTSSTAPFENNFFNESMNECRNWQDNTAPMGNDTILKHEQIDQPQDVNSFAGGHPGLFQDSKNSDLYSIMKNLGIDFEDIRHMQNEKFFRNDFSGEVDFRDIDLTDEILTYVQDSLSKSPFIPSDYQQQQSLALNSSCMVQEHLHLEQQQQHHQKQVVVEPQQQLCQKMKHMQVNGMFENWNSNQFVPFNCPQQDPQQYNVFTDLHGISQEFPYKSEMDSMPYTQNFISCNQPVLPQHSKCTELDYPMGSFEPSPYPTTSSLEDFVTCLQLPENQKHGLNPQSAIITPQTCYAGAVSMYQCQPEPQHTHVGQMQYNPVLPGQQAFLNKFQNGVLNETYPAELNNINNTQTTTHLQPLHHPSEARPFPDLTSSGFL

| Structure (SMILES) | IC50 [µM] |
| --- | --- |
| Cc1cnn2c(NCCc3ccc(N)cc3)cc(-c3cncc(F)c3)nc12 [I-211, N-[2-(4-Aminophenyl)ethyl]-5-(5-fluoro-3-pyridyl)-3-methyl-pyrazolo[1,5-a]pyrimidin-7-amine] | > 1.5 |
| CC(C)c1cnn2c(NCCc3n[nH]c4ccccc34)nc(-c3cncc(F)c3)nc12 [I-289] | < 0.5 |
| CC(C)c1cnn2c(N[C@@H]3CCc4[nH]c(-c5ccccc5)cc4C3)nc(-c3cncc(F)c3)nc12 [I-249b, 2-(5-Fluoro-3-pyridyl)-8-isopropyl-N-[(5R)-2-phenyl-4,5,6,7-tetrahydro-1H-indol-5-yl]pyrazolo[1,5-a][1,3,5]triazin-4-amine] | < 0.5 |
| Cc1cnn2c(N[C@H](Cc3c[nH]c4ccccc34)CN(C)C)cc(-c3cncc(F)c3)nc12 [I-174] | > 1.5 |
| CC(C)c1cnn2c(N[C@@H]3CCc4ccc(O)cc4C3)cc(-c3cncc(F)c3)nc12 [I-94a, (3R)-3-[[5-(5-fluoro-3-pyridyl)-3-isopropyl-pyrazolo[1,5-a]pyrimidin-7-yl]amino]tetralin-6-ol] | > 1.5 |
| CN(C)c1cnn2c(N[C@@H]3Cc4ccc(O)cc4C3)cc(-c3cncc(F)c3)nc12 [I-204a, (2R)-2-[[3-(dimethylamino)-5-(5-fluoro-3-pyridyl)pyrazolo[1,5-a]pyrimidin-7-yl]amino]indan-5-ol] | < 0.5 |
| CC(C)n1cnc2c(NCCc3ccc(O)cc3)nc(-c3csc4ccccc34)nc21 [I-233] | 0.5 to 1 |
| O=C(O)c1cnn2c(NC3CCc4[nH]c5ccccc5c4C3)nc(-c3cncc(F)c3)nc12 (centres unmarked) [I-287] | > 1.5 |
| CC(C)c1cnn2c(NC3CCc4[nH]c5ccccc5c4C3)nc(N3CCN(C)CC3)nc12 (centres unmarked) [I-260] | > 1.5 |
| CC(C)c1cnn2c(N[C@H]3CCc4nc(N)sc4C3)nc(-c3cncc(F)c3)nc12 [I-128a, (6S)—N6-[2-(5-Fluoro-3-pyridyl)-8-isopropyl-pyrazolo[1,5-a][1,3,5]triazin-4-yl]-4,5,6,7-tetrahydro-1,3-benzothiazole-2,6-diamine] | > 1.5 |
| CC(C)c1cnn2c(NC3CCc4[nH]c5ccccc5c4C3)nc(N(C)C)nc12 (centres unmarked) [I-250] | > 1.5 |
| Cc1cnn2c(N[C@@H]3CCc4[nH]c5c(F)cccc5c4C3)cc(-c3cncc(F)c3)nc12 [I-216a, (3R)-8-Fluoro-N-[5-(5-fluoro-3-pyridyl)-3-methyl-pyrazolo[1,5-a]pyrimidin-7-yl]-2,3,4,9-tetrahydro-1H-carbazol-3-amine] | 0.5 to 1 |
| Cc1cnn2c(NC[C@H](O)c3c[nH]c4ccccc34)cc(-c3cncc(F)c3)nc12 [I-150a, (1R)-2-[[5-(5-Fluoro-3-pyridyl)-3-methyl-pyrazolo[1,5-a]pyrimidin-7-yl]amino]-1-(1H-indol-3-yl)ethanol] | < 0.5 |
| Cc1cnn2c(N[C@@H]3CCc4[nH]c5c(F)cc(F)cc5c4C3)cc(-c3cncc(F)c3)nc12 [I-243a] | > 1.5 |
| Cc1cnn2c(NCC(=O)c3c[nH]c4ccccc34)cc(-c3cncc(F)c3)nc12 [I-163, 2-[[5-(5-Fluoro-3-pyridyl)-3-methyl-pyrazolo[1,5-a]pyrimidin-7-yl]amino]-1-(1H-indol-3-yl)ethanone] | < 0.5 |
| CC(C)Oc1nc(N[C@@H]2CCc3[nH]c4ccccc4c3C2)nc(-c2cncc(F)c2)n1 [I-135, (3R)—N-[4-(5-Fluoro-3-pyridyl)-6-isopropoxy-1,3,5-triazin-2-yl]-2,3,4,9-tetrahydro-1H-carbazol-3-amine] | < 0.5 |
| CON(C)C(=O)c1cnn2c(NC3CCc4[nH]c5ccccc5c4C3)nc(-c3cncc(F)c3)nc12 (centres unmarked) [I-286] | < 0.5 |
| Cc1cnn2c(N[C@H](Cc3c[nH]c4ccccc34)C(N)=O)cc(-c3cncc(F)c3)nc12 [I-190a] | > 1.5 |
| CC(C)N(C)c1cc(NCCc2c[nH]c3ccccc23)nc(-c2cncc(F)c2)n1 [I-93, 2-(5-Fluoro-3-pyridyl)-N6-[2-(1H-indol-3-yl)ethyl]-N4-isopropyl-N4-methyl-pyrimidine-4,6-diamine] | < 0.5 |
| CSc1nc(N[C@@H]2CCc3[nH]c4ccccc4c3C2)n2ncc(C(C)C)c2n1 [I-122, (3R)—N-(8-Isopropyl-2-methylsulfanyl-pyrazolo[1,5-a][1,3,5]triazin-4-yl)-2,3,4,9-tetrahydro-1H-carbazol-3-amine] | > 1.5 |
| Fc1cncc(-c2nc(NCCc3c[nH]c4ccccc34)cc(N3CCNCC3)n2)c1 [I-60, 2-(5-Fluoro-3-pyridyl)-N-[2-(1H-indol-3-yl)ethyl]-6-piperazin-1-yl-pyrimidin-4-amine] | 0.5 to 1 |

| Structure (SMILES) | IC50 [µM] |
| --- | --- |
| CC(C)Oc1cc(NCCc2c[nH]c3c(F)cc(F)cc23)nc(-c2cncc(F)c2)n1 [I-88, N-[2-(5,7-Difluoro-1H-indol-3-yl)ethyl]-2-(5-fluoro-3-pyridyl)-6-isopropoxy-pyrimidin-4-amine] | 0.5 to 1 |
| O=Cc1cnn2c(NC3CCc4[nH]c5ccccc5c4C3)nc(-c3cncc(F)c3)nc12 (centres unmarked) [I-275] | < 0.5 |
| O=C(O)c1cnn2c(NC[C@@H](O)c3c[nH]c4ccccc34)cc(-c3cncc(F)c3)nc12 [I-158b] | > 1.5 |
| CC(C)c1cnn2c(N[C@H]3Cc4[nH]c5ccccc5c4C3)nc(-c3cncc(F)c3)nc12 [I-263b, (2R)—N-[2-(5-fluoro-3-pyridyl)-8-isopropyl-pyrazolo[1,5-a][1,3,5]triazin-4-yl]-1,2,3,4-tetrahydrocyclopenta[b]indol-2-amine] | 1 to 1.5 |
| Cc1cnn2c(N[C@@H]3CCc4[nH]ccc4C3)nc(-c3cncc(F)c3)nc12 [I-259b, 2-(5-Fluoro-3-pyridyl)-8-methyl-N-[(5R)-4,5,6,7-tetrahydro-1H-indol-5-yl]pyrazolo[1,5-a][1,3,5]triazin-4-amine] | < 0.5 |
| Cc1[nH]c2c(F)cc(F)cc2c1CCNc1cc(-c2cncc(F)c2)nc2c(C(C)(C)C)cnn12 [I-91, 3-tert-Butyl-N-[2-(5,7-difluoro-2-methyl-1H-indol-3-yl)ethyl]-5-(5-fluoro-3-pyridyl)pyrazolo[1,5-a]pyrimidin-7-amine] | < 0.5 |
| Cc1cnn2c(N[C@@H]3Cc4ccc(O)cc4C3)cc(-c3cncc(F)c3)nc12 [I-232, (2R)-2-[[5-(5-Fluoro-3-pyridyl)-3-methyl-pyrazolo[1,5-a]pyrimidin-7-yl]amino]indan-5-ol] | < 0.5 |
| Fc1cncc(-c2nc(NCCc3c[nH]c4ccccc34)cc(N3CCCCC3)n2)c1 [I-62, 2-(5-Fluoro-3-pyridyl)-N-[2-(1H-indol-3-yl)ethyl]-6-(1-piperidyl)pyrimidin-4-amine] | < 0.5 |
| CC(C)c1cnn2c(NC3CCc4[nH]c5ccccc5c4C3)cc(-c3cccc(F)c3)nc12 (centres unmarked) [I-238] | > 1.5 |
| OCc1cnn2c(NC3CCc4[nH]c5ccccc5c4C3)nc(-c3cncc(F)c3)nc12 (centres unmarked) [I-278] | < 0.5 |
| Cc1cnn2c(NCCc3ccnc(O)c3)cc(-c3cncc(F)c3)nc12 [I-193] | > 1.5 |
| Cc1[nH]c2c(F)cc(F)cc2c1CCNc1cc(-c2cncc(F)c2)nc2c(C3CC3)cnn12 [I-87, 3-Cyclopropyl-N-(2-(5,7-difluoro-2-methyl-1H-indol-3-yl)ethyl)-5-(5-fluoropyridin-3-yl)pyrazolo[1,5-a]pyrimidin-7-amine] | < 0.5 |
| CC(C)c1cnn2c(N[C@H]3CCc4c([nH]c5ccccc45)C3)nc(-c3cncc(F)c3)nc12 [I-146a] | > 1.5 |
| CC(C)c1cnn2c(N[C@@H]3CCc4[nH]c5ccccc5c4C3)nc(-c3cccc(F)c3)nc12 [I-121, (3R)—N-[2-(3-Fluorophenyl)-8-isopropyl-pyrazolo[1,5-a][1,3,5]triazin-4-yl]-2,3,4,9-tetrahydro-1H-carbazol-3-amine] | > 1.5 |
| Fc1cncc(-c2ccnc(NCCc3c[nH]c4ccccc34)n2)c1 [I-120, 4-(5-Fluoro-3-pyridyl)-N-[2-(1H-indol-3-yl)ethyl]pyrimidin-2-amine] | > 1.5 |
| C=Cc1cnn2c(NCCc3c[nH]c4ccccc34)cc(-c3cncc(F)c3)nc12 [I-230, 5-(5-Fluoro-3-pyridyl)-N-[2-(1H-indol-3-yl)ethyl]-3-vinyl-pyrazolo[1,5-a]pyrimidin-7-amine] | < 0.5 |
| COc1cncc(-c2cc(NC3CCc4[nH]c5ccccc5c4C3)n3ncc(C(C)C)c3n2)c1 (centres unmarked) [I-236] | > 1.5 |
| CC(C)n1cnc2c(NCCn3c(=O)[nH]c4ccccc43)nc(-c3cncc(F)c3)nc21 [I-10, 3-[2-[[2-(5-Fluoro-3-pyridyl)-9-isopropyl-purin-6-yl]amino]ethyl]-1H-benzimidazol-2-one] | > 1.5 |
| CC(C)c1cnn2c(NCCc3c[nH]c4ccccc34)cc(-c3cccc(F)c3)nc12 [I-242, 5-(3-fluorophenyl)-N-[2-(1H-indol-3-yl)ethyl]-3-isopropyl-pyrazolo[1,5-a]pyrimidin-7-amine] | < 0.5 |
| Fc1cncc(-c2nc(NCCc3c[nH]c4ccccc34)cc(N3CCOCC3)n2)c1 [I-64, 2-(5-Fluoro-3-pyridyl)-N-[2-(1H-indol-3-yl)ethyl]-6-morpholino-pyrimidin-4-amine] | < 0.5 |

Reference: US11358969B2, “Indole AHR inhibitors and uses thereof” (Ikena Oncology, Inc., priority 2017, dated 2022)
